Experimental data from publication PMC7433010, “Exploration of multi‐target effects of 3‐benzoyl‐5‐hydroxychromen‐2‐one in Alzheimer’s disease cell and mouse models” (Aging Cell, 2020).
Like-named read-outs stand apart in the source and are kept apart here.

Assay: MTT cytotoxicity in uninduced ∆K280 TauRD‐DsRed 293 cells
Type: cell-based
Conditions: human
Procedure: Licochalcone A and five derivative LM compounds were tested (Figure 1a). All six compounds were soluble up to 100 μM in a cell culture medium (Figure S1a). Based on molecular weight (MW), hydrogen bond donors (HBD), hydrogen bond acceptors (HBA), and calculated octanol/water partition coefficient (cLogP), all six compounds meet Lipinski's criteria in predicting oral bioavailability (Lipinski, Lombardo, Dominy, & Feeney, 1997) (Figure S1b). […] To choose the optimal treatment dose used for the best efficacy of the candidate compounds, a specific type of biphasic dose response of a compound called hormesis should take into consideration. Evidence has shown that a wide range of pharmaceutical products display a hermetic dose‐response feature, characterized by a low‐dose stimulation and a high‐dose inhibition (Calabrese et al., 2018; Concetta Scuto et al., 2019; Pilipenko et al., 2019). Therefore, we tested the compounds at a range of doses to find the optimal dose for the best therapeutic effect and the least cytotoxicity. Firstly, MTT assay was performed using uninduced ∆K280 TauRD‐DsRed 293 and retinoic acid‐differentiated SH‐SY5Y cells following treatment with the test compounds (0.1–10 μM) for 3 (for 293 cells) or 7 (for SH‐SY5Ycells) days. […] Congo red is an amyloidogenic dye known to reduce Aβ neurotoxicity (Lorenzo & Yankner, 1994).
Licochalcone A was purchased from Sigma-Aldrich, St. Louis, MO, USA. In-house LM compounds were synthesized and characterized by NMR spectrum as described (Lee et al., 2012, 2015, 2018). Tet-On ∆K280 TauRD-DsRed 293 and SH-SY5Y cells (Chang et al., 2016) were cultured in Dulbecco’s modified Eagles medium (DMEM) (293) or DMEM-F12 (SH-SY5Y) containing 10% fetal bovine serum (Invitrogen, Carlsbad, CA, USA), 5 μg/ml of blasticidin, and 100 μg/ml of hygromycin (InvivoGen, San Diego, CA, USA). Compound cytotoxicity was assessed by colorimetric assay for measuring cell metabolic activity. Briefly, 5 × 10^4 cells were plated (48-well plates), grown for 20 h, and treated with the test compounds ([…]). […], 20 µl of 3-(4,5-dimethylthiazol-2-yl)-2,5-diphenyltetrazolium bromide (MTT, 5 mg/ml in PBS; Sigma-Aldrich) was added to the cells and incubated at 37°C for 3 h. Then 200 µl of lysis buffer (10% Triton X-100, 0.1 N HCl, 18% isopropanol) was added and the absorbance of the insoluble product at OD 570 nm was measured by a microplate reader (FLx800 fluorescence microplate reader, Bio-Tek, Winooski, VT, USA). The half-maximal inhibitory concentration (IC50) was calculated using the interpolation method.
Figure S1. Test compounds. (a) Solubility (in cell culture medium) of test compounds. (b) Molecular weight (MW), hydrogen bond donor (HBD), hydrogen bond acceptor (HBA), calculated octanol-water partition coefficient (cLogP), polar surface area (PSA), and predicted blood-brain barrier (BBB) score of test compounds. (c) Cytotoxicity of test compounds against ∆K280 TauRD-DsRed 293 and SH-SY5Y cells using the MTT assay. Uninduced 293 cells were plated on day 1 and treated with 0.1–10 μM test compounds on day 2. Cell viability was measured on day 5 (n = 3). In addition, uninduced SH-SY5Y cells were seeded with all trans retinoic acid (RA; 10 µM) on day 1 and treated with 0.1–10 μM test compounds on day 2. Cell viability was measured on day 9 (n = 3). To normalize, the relative viability in compound untreated cells was set at 100%. IC50 values are listed.

Structure (SMILES) | IC50 at 3 days (uninduced Tet-On ∆K280 TauRD-DsRed 293 cells, uninduced 293 cells, 3 days treatment, read-out: IC50 (MTT cytotoxicity)) [µM] | IC50 at 3 days [µM]
C=CC(C)(C)c1cc(/C=C/C(=O)c2ccc(O)cc2)c(OC)cc1O [licochalcone A, reference compound] | 7 | –
Nc1c(/N=N/c2ccc(-c3ccc(/N=N/c4cc(S(=O)(=O)O)c5ccccc5c4N)cc3)cc2)cc(S(=O)(=O)O)c2ccccc12 [congo red, reference compound] | – | 36.4
O=C(c1ccccc1)c1cc2c(O)cccc2oc1=O [LM‐031, 3‐benzoyl‐5‐hydroxychromen‐2‐one] | – | 55.9
COc1ccc(C(=O)/C=C/c2cc(Br)ccc2O)cc1 [LM‐004] | – | 6.4
